These results are taken from patent EP4501917A1, “3,4-DIHYDROQUINOXALINE-2-CARBOXIMIDE DERIVATIVE COMPOUND AND PHARMACEUTICAL COMPOSITION COMPRISING SAME FOR PREVENTING OR TREATING CANCER DISEASE” (Daegu-Gyeongbuk Medical Innovation Foundation, priority 2022, dated 2023).

The nature of series [1]: Body weight during drug administration, liver cancer model. It counts as in vivo, nude mice. The settings on record: 50 mg/kg, during the drug administration period, Huh-7 model, FIG. 7D; result in words. On the procedure: (§1) In addition, a liver cancer model was established by subcutaneously transplanting Huh-7 cell lines into nude mice. After establishing the liver cancer model, the mice were divided into two groups (group 1: vehicle administration group, group 2: 50 mg/kg Example 27 compound administration group). The drug was administered once a day for 12 times. To evaluate therapeutic efficacy, tumor volume was measured before drug administration and on days 4, 7, 10, 13, and 15 after drug administration. Tumor volume (mm^3) was calculated as follows (tumor volume (mm^3) = (A X B^2)/2, where A = tumor long axis, B = tumor short axis). Body weight was measured before administration and on days 4, 7, 10, 13, and 15 after drug administration during the drug administration period. Tumor was excised on day 15 after drug treatment and body weight was measured.

The test system of a further series is Huh-7 cell lines. The series can be described thus: Liver cancer model, Huh-7 cell lines subcutaneously transplanted, tumor volume and weight. The settings on record: result in words. It counts as in vivo, nude mice. As for the experimental part:
as §1

For another series, the system named is Liver cancer cells Huh-7. The series can be described thus: Liver cancer cell growth inhibition, CellTiter-Glo Luminescent Cell Viability Assay. The settings on record: Huh-7 cells, various concentrations, day 1, FIG. 6; result in words. Format: cell-based. On the procedure:
In addition, an analysis of liver cancer growth inhibitory activity was performed. Liver cancer cells Huh-7 cells were dispensed in a 96-well plate at 1 × 10^4 cells/ml, and after 20 hours, PCI34051, Example 27, and Example 35 were added at various concentrations, and cultured for 24 and 48 hours at 37°C in a 5% CO2 atmosphere. After culturing, 100 µl CellTiter-Glo Luminescent Cell Viability Assay reagent was added and the luminescence signal was measured after 0.5-1 hour. The luminescence signal was measured using IVIS [PerkinElmer, (Waltham, USA)].
On the technique in general: ATP-based viability assays read luminescence as a measure of living cells.

A further series addresses HDAC9 (Homo sapiens, UniProt Q9UKV0). The series can be described thus: Selective HDAC inhibition, HDAC Fluorogenic assay kit. The conditions noted are these: read-out: HDAC9 enzyme activity (%).
In another series the target is T1, HDAC11 (Homo sapiens, UniProt Q96DB2).
T1 sequence (Q96DB2 1-347): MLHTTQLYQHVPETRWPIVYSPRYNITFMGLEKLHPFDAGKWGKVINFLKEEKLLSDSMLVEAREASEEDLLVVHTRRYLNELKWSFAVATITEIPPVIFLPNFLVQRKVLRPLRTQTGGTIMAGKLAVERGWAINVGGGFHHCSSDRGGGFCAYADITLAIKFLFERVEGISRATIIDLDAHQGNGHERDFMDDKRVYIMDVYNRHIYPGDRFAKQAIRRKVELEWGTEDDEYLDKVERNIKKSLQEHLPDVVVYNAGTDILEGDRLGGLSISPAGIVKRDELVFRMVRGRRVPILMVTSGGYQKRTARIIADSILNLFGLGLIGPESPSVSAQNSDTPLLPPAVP
Described as above. The conditions noted are these: read-out: HDAC11 enzyme activity (%).

The target in series [2] is T2, HDAC8 (Homo sapiens, UniProt Q9BY41).
T2 construct: purchased BPS bioscience
T2 sequence (Q9BY41 1-377): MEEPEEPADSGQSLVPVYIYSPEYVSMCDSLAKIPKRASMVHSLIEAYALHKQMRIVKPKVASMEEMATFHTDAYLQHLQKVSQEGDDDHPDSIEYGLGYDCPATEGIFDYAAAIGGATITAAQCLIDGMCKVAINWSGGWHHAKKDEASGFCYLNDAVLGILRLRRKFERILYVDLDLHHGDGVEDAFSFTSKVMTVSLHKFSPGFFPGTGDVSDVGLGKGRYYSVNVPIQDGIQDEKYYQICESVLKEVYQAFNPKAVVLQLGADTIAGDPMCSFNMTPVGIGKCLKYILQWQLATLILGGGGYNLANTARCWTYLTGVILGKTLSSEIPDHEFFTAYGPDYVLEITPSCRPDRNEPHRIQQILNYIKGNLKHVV
Described as above. It counts as biochemical.
Procedure: (§2) For analysis, HDAC substrate 3 was diluted in buffer to a concentration of 200 µM and used in HDAC 1, 2, 3, 6, and 10 assays, HDAC substrate 2A was diluted in buffer to a concentration of 200 µM and used in HDAC 4, 7, 9, and 11 assays, HDAC substrate 2A was diluted in buffer to a concentration of 20 µM and used in HDAC 8 assays. For the HDAC 11 assay, a dedicated buffer included in the kit was used separately, and the same buffer was used for the remaining assays. The compound of the Example was diluted to 1 mM (1% DMSO concentration) using DMSO to obtain a final concentration of 10 µM, and prepared by diluting 1/10 with assay buffer. In a 96-well black round-bottom plate, 5 µL of the diluted compound of the Example, 5 µL of the diluted HDAC substrate, 5 µL of BSA (1 mg/ml), 5 µL of the HDAC enzyme diluted to the appropriate concentration, and 30 µL of assay buffer were added, and the enzyme reaction was performed at 37°C for 30 minutes. […] Afterwards, 50 µL of 2X HDAC developer was added to each well. After reacting for 15 minutes at room temperature, the fluorescence values at excitation wavelengths of 350-380 nm and emission wavelengths of 440-460 nm were measured using a microplate reader (Synergy Neo).

The nature of series [3]: Body weight during drug administration, prostate cancer model. It counts as in vivo, nude mice. The conditions noted are these: 50 mg/kg, during the drug administration period, PC-3 model, FIG. 5; result in words. On the procedure:
A prostate cancer model was established by subcutaneously transplanting PC-3 cell lines into nude mice, and the mice were divided into two groups (group 1: vehicle administration group (10% DSMO, 30% PEG400, 60% DW), group 2: 50 mg/kg Example 27 compound administration group). The drug was administered orally once a day for 12 times. To evaluate the therapeutic efficacy, tumors were […] before drug administration and on days 3, 6, 8, 10, 12, and 14 after drug administration, and tumor volumes were measured. Tumor volume (mm^3) was calculated as follows (tumor volume (mm^3) = (A X B^2)/2, where A = tumor long axis, B = tumor short axis), and the results are shown in FIG. 2.

The target in series [4] is T2, HDAC8. The series can be described thus: HDAC8 inhibitory activity analysis (in vitro), RFU analysis, HDAC Fluorogenic assay kit. It counts as biochemical.
Procedure: The compound of the Example was diluted to 1 mM (1% DMSO concentration) using DMSO to obtain a final concentration of 10 µM, and prepared by diluting 1/10 with assay buffer. In a 96-well black round-bottom plate, 5 µL of the diluted compound of the Example, 5 µL of the diluted HDAC substrate 2A, 5 µL of BSA (1 mg/mL), 5 µL of the HDAC8 enzyme diluted to an appropriate concentration, and 30 µL of assay buffer were added, and the enzyme reaction was performed at 37°C for 30 minutes. […] Afterwards, 50 µL of 2X HDAC developer was added to each well. After reacting for 15 minutes at room temperature, the fluorescence values at excitation wavelengths of 350-380 nm and emission wavelengths of 440-460 nm were measured using a microplate reader (Synergy Neo).

Sequence of HDAC9 (Q9UKV0 whole entry): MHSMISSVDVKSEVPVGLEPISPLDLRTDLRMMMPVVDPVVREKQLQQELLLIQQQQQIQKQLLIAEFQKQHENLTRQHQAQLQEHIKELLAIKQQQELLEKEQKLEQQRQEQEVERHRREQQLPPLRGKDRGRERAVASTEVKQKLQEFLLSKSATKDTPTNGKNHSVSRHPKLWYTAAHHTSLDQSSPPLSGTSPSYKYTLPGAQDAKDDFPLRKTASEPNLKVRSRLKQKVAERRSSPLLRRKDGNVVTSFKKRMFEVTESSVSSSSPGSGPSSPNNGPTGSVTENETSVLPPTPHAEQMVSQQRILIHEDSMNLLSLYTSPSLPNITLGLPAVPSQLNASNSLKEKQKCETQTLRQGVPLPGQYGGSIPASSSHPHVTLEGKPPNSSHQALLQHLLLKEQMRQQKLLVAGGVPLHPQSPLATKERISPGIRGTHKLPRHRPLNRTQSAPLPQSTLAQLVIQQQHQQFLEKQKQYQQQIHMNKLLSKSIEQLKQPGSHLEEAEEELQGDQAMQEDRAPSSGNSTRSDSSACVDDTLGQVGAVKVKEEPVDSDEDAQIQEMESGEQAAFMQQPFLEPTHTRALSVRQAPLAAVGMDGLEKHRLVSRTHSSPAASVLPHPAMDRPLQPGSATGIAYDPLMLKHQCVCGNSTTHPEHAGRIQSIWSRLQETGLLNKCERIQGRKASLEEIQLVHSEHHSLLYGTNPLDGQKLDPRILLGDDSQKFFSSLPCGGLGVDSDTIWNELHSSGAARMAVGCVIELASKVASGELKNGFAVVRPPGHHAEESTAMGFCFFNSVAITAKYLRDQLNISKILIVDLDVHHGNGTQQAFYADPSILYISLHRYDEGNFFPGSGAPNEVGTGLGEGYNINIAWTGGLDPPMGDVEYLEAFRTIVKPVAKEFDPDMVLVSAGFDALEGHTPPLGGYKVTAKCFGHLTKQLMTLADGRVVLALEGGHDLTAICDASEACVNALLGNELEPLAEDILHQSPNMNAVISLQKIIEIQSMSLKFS
Procedure for HDAC11: as §2
Procedure for HDAC9: as §2

As for `Cc1cc2nc(C(=O)NCCc3c[nH]c4ccc(O)cc34)c(=O)n(C[C@H](O)[C@H](O)[C@H](O)CO)c2cc1C` [Example 27, N-(2-(5-hydroxy-1H-indol-3-yl)ethyl)-6,7-dimethyl-3-oxo-4-((2S,3S,4R)-2,3,4,5-tetrahydroxypentyl)-3,4-dihydroquinoxaline-2-carboxamide], in series [1], the body weight entry is on record as “No rapid weight loss was observed”. In addition, in the series on Huh-7 cell lines (50 mg/kg once a day for 12 times, until day 15, **p<0.005 compared with vehicle, FIG. 7A), the tumor volume entry is recorded as “tumor growth inhibitory effect”. For the same compound, the tumor weight result with Huh-7 cell lines (50 mg/kg, tumor removed on day 15, ***p<0.0005 compared with vehicle, FIGS. 7B and 7C) is reported as “tumor weight of the vehicle group was significantly higher”. Moreover, in the series on Liver cancer cells Huh-7, the cell viability result is given as “concentration-dependent inhibition of cancer cell viability”. Besides, the remaining activity at 10 µM on HDAC9 worked out at 66.5%; on HDAC11, 97.3%; at HDAC8 [2] (final concentration 10 µM, HDAC substrate 2A 20 µM, positive control (1% DMSO) set to 100, read-out: HDAC8 enzyme activity (%)), 14.1%. For the same compound, at HDAC8 [2] (result in words, HDAC8 versus HDAC1, 2, 3, 4, 6, 7, 9, 10, 11, summary of Table 3), the “selective inhibitory effect on HDAC8” value is “selective and excellent inhibitory activity only against HDAC8”. Moreover, in series [3], the “body weight of the mice” value is “no rapid weight loss was confirmed”. The “RFU (%)” value on HDAC8 [4] (compound final concentration 10 µM, HDAC substrate 2A 20 µM, positive control (1% DMSO) set to 100, lower = more inhibition) is 7.62%. Moreover, at HDAC8 [4] (result in words, summary of Table 2, 10 µM), the “inhibitory activity against HDAC8” value is “inhibitory activity similar to TSA or SAHA”.
